Experimental data taken from patent publication EP0560983B1, “New DNA sequence” (priority 1991, dated 1993).

Columns and labels:
Assay type in all cases: biochemical, Brevibacterium sterolicum ATCC 21387
cholesterol oxidase I [1] = target: T1, cholesterol oxidase I (Brevibacterium sterolicum, UniProt P22637); assay: Influence of inhibitor on enzyme activity; conditions: inhibitor at 1 mM, activity in the absence of the inhibitor = 100
T1 construct: host or cells: Brevibacterium sterolicum ATCC 21387 (origin of the enzyme; how it was prepared is not described)
T1 sequence (P22637 46-552): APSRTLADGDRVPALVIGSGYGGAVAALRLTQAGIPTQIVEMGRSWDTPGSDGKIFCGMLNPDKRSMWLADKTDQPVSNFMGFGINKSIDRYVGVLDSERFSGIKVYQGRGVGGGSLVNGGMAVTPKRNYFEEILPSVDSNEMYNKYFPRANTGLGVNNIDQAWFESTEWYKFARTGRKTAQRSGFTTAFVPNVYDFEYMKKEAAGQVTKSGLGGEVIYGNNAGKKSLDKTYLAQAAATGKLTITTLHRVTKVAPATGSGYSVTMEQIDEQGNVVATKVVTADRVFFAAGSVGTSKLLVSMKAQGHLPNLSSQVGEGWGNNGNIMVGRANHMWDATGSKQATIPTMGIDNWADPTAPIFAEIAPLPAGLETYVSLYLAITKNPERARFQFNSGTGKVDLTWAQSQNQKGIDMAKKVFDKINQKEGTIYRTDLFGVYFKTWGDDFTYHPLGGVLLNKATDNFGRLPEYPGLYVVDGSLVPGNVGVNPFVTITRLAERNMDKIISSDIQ
Description: (§1) (3) Working pH for activity: The working pH of cholesterol oxidase II is in a range of 5.0 to 7.5, whereas that of cholesterol oxidase I is in a range of 6.0 to 7.5. […]
(§2) (d) Based on the amount of hydrogen peroxide formed, the amount of oxygen consumed and identification of the reaction product as described in (a), (b) and (c), it is recognized that the enzyme of the present invention acts on specifically cholesterol, that cholesterol was oxidized into hydrogen peroxide and 4-cholesten-3-one; that is, this enzyme has a cholesterol oxidase activity. [drawing 2] wherein R represents [drawing 3] • II. Working pH range and stable pH range The working pH for the activity is in a range of 5.0 to 7.5. The working pH range was determined by assaying the activity at each pH (phosphate buffer, Tris-HCl buffer, sodium acetate buffer) after the reaction at 37°C for 5 minutes. […] The pH range is determined by treating the enzyme at 50°C for 60 minutes at each pH (phosphate buffer, Tris-HCl buffer, sodium acetate buffer) and then assaying the residual activity. Method for determination of titer The amount of enzyme which catalyzes the reaction of decomposing 1 µmole of cholesterol at 37°C for one minute in the presence of oxygen is defined as one unit. The titer is determined as follows. With shaking, the enzyme acts on cholesterol and 4-aminoantipyrine and phenol are reacted with the formed hydrogen peroxide in the presence of peroxidase to form quinoneimine pigment. Absorption of the thus formed quinoneimine pigment in the visible region is measured to determine the amount of hydrogen peroxide generated. Thus, the titer of the enzyme is determined. Hereafter specific activity is defined as activity per 1 mg of protein (unit/mg). Furthermore, an amount of enzyme protein is determined by absorbance at 280 nm (1 mg/mℓ when absorbance is 1). • (a) Principle The enzyme activity is determined by reacting hydrogen peroxide generated by the enzyme with 4-aminoantipyrine and phenol in the presence of peroxidase and quantitatively determining the formed quinoneimine pigment. The reaction is shown by the following equations (1) and (2). [drawing 4] wherein R represents [drawing 5] [drawing 6] • (b) Procedure In a test tube, there are charged 1.0 ml of 3 mM cholesterol solution (which is prepared by adding 6 mℓ of 50 mM cholesterol ethanol solution to 94 mℓ of 1.05% Triton X-100 solution with stirring, heating the mixture for 10 minutes on a water bath, cooling the mixture in water, adding distilled water to the mixture until the total volume is 100 mℓ; and is not allowed to be used 30 minutes or longer after preparation), 0.3 mℓ of 50 mM sodium bilate solution, 0.3 mℓ of 0.5 mM potassium-sodium phosphate buffer (pH 6.6), 0.5 mℓ of 42 mM phenol, 0.5 mℓ of 2.4 mM 4-aminoantipyrine and 0.2 mℓ of 115 units/mℓ horseradish-derived peroxidase. The mixture is agitated. After maintaining at 37°C for 3 mintues, 0.2 mℓ of an enzyme solution is added to the mixture. With shaking, the reaction is carried out at 37°C for 5 to 10 minutes. Then, absorbance is measured at 500 nm (OD 500 nm). • (c) Calculation of titer One unit of cholesterol oxidase II corresponds to an enzyme activity which decomposes 1 µmole of cholesterol at 37°C for 1 minute. On the other hand, it is reported that absorption coefficient of 1 mM quinoneimine is 5.33 [Clinical Chemistry, 20, 470 (1974)]. […]

cholesterol oxidase II [2] = assay: Influence of inhibitor on enzyme activity; conditions: for Relative Activity (%): cholesterol oxidase II, inhibitor at 1 mM, activity in the absence of the inhibitor = 100; for Inhibition: whether cholesterol oxidase II is inhibited, in words
Description: as §1, §2

cholesterol oxidase I [3] = target: T1, cholesterol oxidase I; assay: Substrate specificity (relative activity on each substrate); conditions: activity of cholesterol oxidase I on each substrate; cholesterol = 100
Description: (§3) The working pH range was determined by assaying the activity at each pH (phosphate buffer, Tris-HCl buffer, sodium acetate buffer) after the reaction at 37°C for 5 minutes. […] The pH range is determined by treating the enzyme at 50°C for 60 minutes at each pH (phosphate buffer, Tris-HCl buffer, sodium acetate buffer) and then assaying the residual activity. Method for determination of titer The amount of enzyme which catalyzes the reaction of decomposing 1 µmole of cholesterol at 37°C for one minute in the presence of oxygen is defined as one unit. The titer is determined as follows. With shaking, the enzyme acts on cholesterol and 4-aminoantipyrine and phenol are reacted with the formed hydrogen peroxide in the presence of peroxidase to form quinoneimine pigment. Absorption of the thus formed quinoneimine pigment in the visible region is measured to determine the amount of hydrogen peroxide generated. Thus, the titer of the enzyme is determined. Hereafter specific activity is defined as activity per 1 mg of protein (unit/mg). […] The mixture is agitated. After maintaining at 37°C for 3 mintues, 0.2 mℓ of an enzyme solution is added to the mixture. With shaking, the reaction is carried out at 37°C for 5 to 10 minutes. Then, absorbance is measured at 500 nm (OD 500 nm). • (c) Calculation of titer One unit of cholesterol oxidase II corresponds to an enzyme activity which decomposes 1 µmole of cholesterol at 37°C for 1 minute. […] Optimum temperature The optimum temperature at a pH of 6.6 for 3 minutes of the reaction time was examined. […] After heat treatment at pH of 7.0 for 60 minutes in 0.05 M phosphate buffer, the residual activity was determined. […] Reaction rates of the two enzymes were measured in various concentrations of cholesterol. […] Michealis' constant was determined from the Line weaver-Burk plot [refer to J. Am. […] Determination of the amino acid sequence and nucleotide sequence of cholesterol oxidase II Cholesterol oxidase II may be divided into 2 subunits, using reverse phase high performance liquid chromatography. Each subunit is digested with a protease, for example trypsin, and the digested subunit is further fractionated using high performance liquid chromatography, to obtain protease-digested fragments. The amino acid sequence of each digested fragment may be analyzed according to the conventional method, with the amino acid sequencer.

cholesterol oxidase II [4] = assay: as above; conditions: for Relative Activity (%): activity of cholesterol oxidase II on each substrate, cholesterol = 100; for Substrate specificity: whether cholesterol oxidase II acts on the substrate, in words
Description: as §3

SMILES | Relative Activity (%) (cholesterol oxidase I [1]) | Relative Activity (%) (cholesterol oxidase II [2]) | Inhibition (cholesterol oxidase II [2]) | Relative Activity (%) (cholesterol oxidase I [3]) | Relative Activity (%) (cholesterol oxidase II [4]) | Substrate specificity (cholesterol oxidase II [4])
O=[N+]([O-])[O-].[Ag+] [AgNO3, silver nitrate] | 0 | 1.0 | inhibited | – | – | –
C[C@]12CC[C@@H](O)C[C@@H]1CC[C@@H]1[C@@H]2CC[C@]2(C)C(=O)CC[C@@H]12 [Androsterone] | – | – | – | 0 | 0 | does not act on
CCCCC/C=C\C/C=C\CCCCCCCC(=O)O[C@H]1CC[C@@]2(C)C(=CC[C@H]3[C@@H]4CC[C@H]([C@H](C)CCCC(C)C)[C@@]4(C)CC[C@@H]32)C1 [Cholesterol linoleate] | – | – | – | 0 | 0 | does not act on
CC(C)CCC[C@@H](C)[C@H]1CC[C@H]2[C@@H]3CC=C4C[C@@H](O)CC[C@]4(C)[C@H]3CC[C@]12C [Cholesterol, 5-cholesten-3-β-ol] | – | – | – | 100 | 100 | acts on
C[C@]12CC[C@H](O)CC1=CC[C@@H]1[C@@H]2CC[C@]2(C)C(=O)CC[C@@H]12 [Dehydroisoandrosterone] | – | – | – | 41.4 | 13.0 | acts on
C[C@]12CC[C@@H]3c4ccc(O)cc4CC[C@H]3[C@@H]1CC[C@@H]2O [Estradiol] | – | – | – | 0 | – | –
CC(C)=CCC[C@@H](C)[C@H]1CC[C@@]2(C)C3=C(CC[C@]12C)[C@@]1(C)CC[C@H](O)C(C)(C)[C@@H]1CC3 [Lanosterol] | – | – | – | 0 | 0 | does not act on
CC(=O)[C@H]1CC[C@H]2[C@@H]3CC=C4C[C@@H](O)CC[C@]4(C)[C@H]3CC[C@]12C [Pregnenolone] | – | – | – | 22.4 | 32.9 | acts on
CC[C@H](/C=C/[C@@H](C)[C@H]1CC[C@H]2[C@@H]3CC=C4C[C@@H](O)CC[C@]4(C)[C@H]3CC[C@]12C)C(C)C [Stigmasterol] | – | – | – | 10.0 | 64.4 | acts on
C=C1CC[C@H](O)C/C1=C/C=C1\CCC[C@]2(C)[C@@H]([C@H](C)CCCC(C)C)CC[C@@H]12 [Vitamin D3] | – | – | – | 0 | 0 | does not act on
Oc1cccc2cccnc12 [o-Hydroxyquinoline] | – | 91.3 | inhibited | – | – | –
O=S(=O)(O)c1cc[c]([Hg][Cl])cc1 [p-Chloromercury benzenesulfonate] | – | 87.0 | inhibited | – | – | –
CC[C@H](CC[C@@H](C)[C@H]1CC[C@H]2[C@@H]3CC=C4C[C@@H](O)CC[C@]4(C)[C@H]3CC[C@]12C)C(C)C [β-Sitosterol] | – | – | – | 19.7 | 82.0 | acts on
